Results: PubChem BioAssay AID1918942 (Molecular Pharmacology Branch, DTP, NCI, 2023)

System: 743489-274-T-PDC complex spheroid viability
Experiment: Anticancer human tumor 743489-274-T-PDC patient-derived renal cell carcinoma cell line growth inhibition
Conditions: for IC50: curve of first compound; for viability, T/C: stronger effect = lower value
In short: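 Multicellular complex spheroids of tumor cells with human endothelial cells (HUVEC) and mesenchymal stem cells; the LSD1 inhibitor iadademstat was combined with standard-of-care or investigational agents. Top concentration at or near clinical Cmax, half-log dilutions; final DMSO ≤0.25%.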

[1] = second compound 0.1 µM, first compound 0.000316 µM
[2] = second compound 0.1 µM, first compound 0.001 µM
[3] = second compound 0.1 µM, first compound 0.00316 µM
[4] = second compound 0.1 µM, first compound 0.01 µM
[5] = second compound 0.1 µM, first compound 0.0316 µM
[6] = second compound 0.1 µM, first compound 0.1 µM
[7] = second compound 0.316 µM, first compound 0.000316 µM
[8] = second compound 0.316 µM, first compound 0.001 µM
[9] = second compound 0.316 µM, first compound 0.00316 µM
[10] = second compound 0.316 µM, first compound 0.01 µM
[11] = second compound 0.316 µM, first compound 0.0316 µM
[12] = second compound 0.316 µM, first compound 0.1 µM
[13] = second compound 1 µM, first compound 0.000316 µM
[14] = second compound 1 µM, first compound 0.001 µM
[15] = second compound 1 µM, first compound 0.00316 µM
[16] = second compound 1 µM, first compound 0.01 µM
[17] = second compound 1 µM, first compound 0.0316 µM
[18] = second compound 1 µM, first compound 0.1 µM
[19] = second compound 3.16 µM, first compound 0.000316 µM
[20] = second compound 3.16 µM, first compound 0.001 µM
[21] = second compound 3.16 µM, first compound 0.00316 µM
[22] = second compound 3.16 µM, first compound 0.01 µM
[23] = second compound 3.16 µM, first compound 0.0316 µM
[24] = second compound 3.16 µM, first compound 0.1 µM
[25] = second compound 10 µM, first compound 0.000316 µM
[26] = second compound 10 µM, first compound 0.001 µM
[27] = second compound 10 µM, first compound 0.00316 µM
[28] = second compound 10 µM, first compound 0.01 µM
[29] = second compound 10 µM, first compound 0.0316 µM
[30] = second compound 10 µM, first compound 0.1 µM
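Also: spheroids exposed to compounds for 7 days before readout.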
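For viability, T/C in this document: 100% = DMSO vehicle control wells.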

`CC(C)CC(NC(=O)C(Cc1ccccc1)NC(=O)c1cnccn1)B(O)O` (stereo not given) + NC1CC1c1ccc(-c2cccc(O)c2)cc1 was tested, and the IC50 (second compound 0.1 µM) was 7.45 nM, the IC50 (second compound 0.316 µM) was 7.39 nM and the IC50 (second compound 1 µM) was 7.95 nM. It also gave an IC50 (second compound 3.16 µM) of 7.95 nM, an IC50 (second compound 10 µM) of 6.77 nM and a viability, T/C [1] of 122%. For the same compound, the viability, T/C [2] was 102%, the viability, T/C [3] was 93.9% and the viability, T/C [4] was 33.9%. The viability, T/C [5] was 32.3%, the viability, T/C [6] was 24.2% and the viability, T/C [7] was 119%. It also gave a viability, T/C [8] of 109%, a viability, T/C [9] of 111% and a viability, T/C [10] of 25.3%. The viability, T/C [11] was 30.7%, the viability, T/C [12] was 28.5% and the viability, T/C [13] was 113%. The viability, T/C [14] was 104%, the viability, T/C [15] was 102% and the viability, T/C [16] was 35.9%. It also gave a viability, T/C [17] of 36.8%, a viability, T/C [18] of 19.4% and a viability, T/C [19] of 123%. For the same compound, the viability, T/C [20] was 136%, the viability, T/C [21] was 105% and the viability, T/C [22] was 36.5%. The viability, T/C [23] was 28.5%, the viability, T/C [24] was 20.7% and the viability, T/C [25] was 110%. The viability, T/C [26] was 118%, the viability, T/C [27] was 98.7% and the viability, T/C [28] was 25%. For the same compound, the viability, T/C [29] was 25.5% and the viability, T/C [30] was 14.5%.

`CC(C)CC(NC(=O)CNC(=O)c1cc(Cl)ccc1Cl)B1OC(=O)CC(CC(=O)O)(C(=O)O)O1` (stereo not given) + NC1CC1c1ccc(-c2cccc(O)c2)cc1 showed an IC50 (second compound 0.1 µM) of 83.1 nM, an IC50 (second compound 0.316 µM) of over 100 nM and an IC50 (second compound 1 µM) of 84.5 nM. It also gave an IC50 (second compound 3.16 µM) of over 100 nM, an IC50 (second compound 10 µM) of 49.9 nM and a viability, T/C [1] of 105%. It also gave a viability, T/C [2] of 114%, a viability, T/C [3] of 97.8% and a viability, T/C [4] of 80.7%. For the same compound, the viability, T/C [5] was 74.3%, the viability, T/C [6] was 45% and the viability, T/C [7] was 102%. It also gave a viability, T/C [8] of 102%, a viability, T/C [9] of 94.5% and a viability, T/C [10] of 77.6%. The viability, T/C [11] was 76.5%, the viability, T/C [12] was 52.8% and the viability, T/C [13] was 103%. It also gave a viability, T/C [14] of 106%, a viability, T/C [15] of 104% and a viability, T/C [16] of 80%. The viability, T/C [17] was 66.1%, the viability, T/C [18] was 46.6% and the viability, T/C [19] was 90%. For the same compound, the viability, T/C [20] was 105%, the viability, T/C [21] was 102% and the viability, T/C [22] was 68.2%. The viability, T/C [23] was 60.8%, the viability, T/C [24] was 45.2% and the viability, T/C [25] was 95.8%. The viability, T/C [26] was 108%, the viability, T/C [27] was 101% and the viability, T/C [28] was 80.1%. It also gave a viability, T/C [29] of 59.7% and a viability, T/C [30] of 37.7%.

`Nc1ccccc1NC(=O)c1ccc(CNC(=O)OCc2cccnc2)cc1` + NC1CC1c1ccc(-c2cccc(O)c2)cc1 showed an IC50 (second compound 0.1 µM) of 678 nM, an IC50 (second compound 0.316 µM) of 773 nM and an IC50 (second compound 1 µM) of 642 nM. The IC50 (second compound 3.16 µM) was 1010 nM, the IC50 (second compound 10 µM) was 1320 nM and the viability, T/C (second compound 0.1 µM, first compound 0.00949 µM) was 93.2%. For the same compound, the viability, T/C (second compound 0.1 µM, first compound 0.03 µM) was 88.5%, the viability, T/C (second compound 0.1 µM, first compound 0.0949 µM) was 87.5% and the viability, T/C (second compound 0.1 µM, first compound 0.3 µM) was 62.6%. It also gave a viability, T/C (second compound 0.1 µM, first compound 0.949 µM) of 45.8%, a viability, T/C (second compound 0.1 µM, first compound 3 µM) of 29.2% and a viability, T/C (second compound 0.316 µM, first compound 0.00949 µM) of 95.7%. The viability, T/C (second compound 0.316 µM, first compound 0.03 µM) was 86.8%, the viability, T/C (second compound 0.316 µM, first compound 0.0949 µM) was 84.5% and the viability, T/C (second compound 0.316 µM, first compound 0.3 µM) was 65.8%. For the same compound, the viability, T/C (second compound 0.316 µM, first compound 0.949 µM) was 45.5%, the viability, T/C (second compound 0.316 µM, first compound 3 µM) was 40.3% and the viability, T/C (second compound 1 µM, first compound 0.00949 µM) was 98.6%. It also gave a viability, T/C (second compound 1 µM, first compound 0.03 µM) of 87.5%, a viability, T/C (second compound 1 µM, first compound 0.0949 µM) of 83.4% and a viability, T/C (second compound 1 µM, first compound 0.3 µM) of 62.3%. The viability, T/C (second compound 1 µM, first compound 0.949 µM) was 43.2%, the viability, T/C (second compound 1 µM, first compound 3 µM) was 24.6% and the viability, T/C (second compound 3.16 µM, first compound 0.00949 µM) was 92.8%. For the same compound, the viability, T/C (second compound 3.16 µM, first compound 0.03 µM) was 84.5%, the viability, T/C (second compound 3.16 µM, first compound 0.0949 µM) was 81.6% and the viability, T/C (second compound 3.16 µM, first compound 0.3 µM) was 72.5%. The viability, T/C (second compound 3.16 µM, first compound 0.949 µM) was 49%, the viability, T/C (second compound 3.16 µM, first compound 3 µM) was 36.5% and the viability, T/C (second compound 10 µM, first compound 0.00949 µM) was 95.5%. It also gave a viability, T/C (second compound 10 µM, first compound 0.03 µM) of 87.5%, a viability, T/C (second compound 10 µM, first compound 0.0949 µM) of 77.9% and a viability, T/C (second compound 10 µM, first compound 0.3 µM) of 70.1%. For the same compound, the viability, T/C (second compound 10 µM, first compound 0.949 µM) was 58.4% and the viability, T/C (second compound 10 µM, first compound 3 µM) was 35.4%.

For `O=C(c1cc(Cc2n[nH]c(=O)c3ccccc23)ccc1F)N1CCN(C(=O)C2CC2)CC1` + NC1CC1c1ccc(-c2cccc(O)c2)cc1, the IC50 (second compound 0.1 µM) was over 10000 nM, the IC50 (second compound 0.316 µM) was over 10000 nM and the IC50 (second compound 1 µM) was over 10000 nM. The IC50 (second compound 3.16 µM) was over 10000 nM, the IC50 (second compound 10 µM) was over 10000 nM and the viability, T/C [5] was 112%. The viability, T/C [6] was 115%, the viability, T/C (second compound 0.1 µM, first compound 0.316 µM) was 106% and the viability, T/C (second compound 0.1 µM, first compound 1 µM) was 113%. The viability, T/C (second compound 0.1 µM, first compound 3.16 µM) was 95.7%, the viability, T/C (second compound 0.1 µM, first compound 10 µM) was 92.5% and the viability, T/C [11] was 105%. For the same compound, the viability, T/C [12] was 110%, the viability, T/C (second compound 0.316 µM, first compound 0.316 µM) was 132% and the viability, T/C (second compound 0.316 µM, first compound 1 µM) was 97.4%. The viability, T/C (second compound 0.316 µM, first compound 3.16 µM) was 107%, the viability, T/C (second compound 0.316 µM, first compound 10 µM) was 115% and the viability, T/C [17] was 117%. It also gave a viability, T/C [18] of 104%, a viability, T/C (second compound 1 µM, first compound 0.316 µM) of 114% and a viability, T/C (second compound 1 µM, first compound 1 µM) of 93.8%. The viability, T/C (second compound 1 µM, first compound 3.16 µM) was 93.3%, the viability, T/C (second compound 1 µM, first compound 10 µM) was 94.7% and the viability, T/C [23] was 98.1%. The viability, T/C [24] was 103%, the viability, T/C (second compound 3.16 µM, first compound 0.316 µM) was 117% and the viability, T/C (second compound 3.16 µM, first compound 1 µM) was 106%. The viability, T/C (second compound 3.16 µM, first compound 3.16 µM) was 100%, the viability, T/C (second compound 3.16 µM, first compound 10 µM) was 99.3% and the viability, T/C [29] was 118%. The viability, T/C [30] was 121%, the viability, T/C (second compound 10 µM, first compound 0.316 µM) was 120% and the viability, T/C (second compound 10 µM, first compound 1 µM) was 120%. The viability, T/C (second compound 10 µM, first compound 3.16 µM) was 95.8% and the viability, T/C (second compound 10 µM, first compound 10 µM) was 94.2%.
